Source: ChEMBL document CHEMBL4390659, “Molecular hybridization approach for phenothiazine incorporated 1,2,3-triazole hybrids as promising antimicrobial agents: Design, synthesis, molecular docking and in silico ADME studies” (Eur J Med Chem, 2019)
In brackets after ≈: the same amount, converted by molar mass.

What was measured:
[1] = tested on: Mycobacterium tuberculosis; assay: Antibacterial activity against Mycobacterium tuberculosis H37Rv ATCC 27294 assessed as reduction in mycobacterial growth incubated for 5 days by MABA method; format: functional; settings: H37Rv ATCC 27294, 120 h
[2] = tested on: Mycobacterium tuberculosis; assay: Potency index, ratio of pyrazinamide MIC to test compound MIC against Mycobacterium tuberculosis H37Rv ATCC 27294; format: functional
[3] = tested on: Mycobacterium tuberculosis; assay: Potency index, ratio of ciprofloxacin MIC to test compound MIC against Mycobacterium tuberculosis H37Rv ATCC 27294; format: functional
[4] = tested on: Escherichia coli; assay: Antibacterial activity against Escherichia coli incubated for 24 hrs by agar dilution method; format: functional
[5] = tested on: Staphylococcus aureus; assay: Antibacterial activity against Staphylococcus aureus incubated for 24 hrs by agar dilution method; format: functional
[6] = tested on: Pseudomonas aeruginosa; assay: Antibacterial activity against Pseudomonas aeruginosa incubated for 24 hrs by agar dilution method; format: functional
[7] = tested on: Mycobacterium tuberculosis; assay: Potency index, ratio of streptomycin MIC to test compound MIC against Mycobacterium tuberculosis H37Rv ATCC 27294; format: functional
[8] = tested on: Vero; assay: Cytotoxicity against African green monkey Vero cells assessed as reduction in cell viability incubated for 72 hrs by MTT assay; format: cell-based; settings: Chlorocebus sabaeus
[9] = Cytotoxicity against African green monkey Vero cells assessed as cell growth inhibition at 6.25 ug/ml incubated for 72 hrs by MTT assay relative to control; format: cell-based; settings: chlorocebus sabaeus, read-out: GI
[10] = Selectivity index, ratio of IC50 for African green monkey Vero cells to MIC for Mycobacterium tuberculosis H37Rv ATCC 27294; format: toxicity; settings: read-out: Selectivity Index

N#Cc1ccc(Cn2cc(CN3c4ccccc4Sc4cc(/C=N/NC(=O)c5ccc(F)cc5)ccc43)nn2)cc1 showed an MIC [1] of 2.85 µM, a Ratio [2] of 2 and a Ratio [3] of 4. The MIC [4] was 12.5 µg/mL (≈ 22.3 µM), the MIC [5] was 6.25 µg/mL (≈ 11.2 µM) and the MIC [6] was 12.5 µg/mL (≈ 22.3 µM). For the same molecule, the Ratio [7] was 4, the IC50 [8] was 758 µg/mL (≈ 1350 µM) and the inhibition at 72 h, 6.25 ug/ml [9] was 11.4%. It also gave a selectivity ratio [10] of 66.3.
With N#Cc1ccc(Cn2cc(CN3c4ccccc4Sc4ccccc43)nn2)cc1 the MIC [1] was 1.6 µg/mL, the Ratio [2] was 2 and the Ratio [3] was 4. It also gave an MIC [4] of 12.5 µg/mL (≈ 31.6 µM), an MIC [5] of 6.25 µg/mL (≈ 15.8 µM) and an MIC [6] of 12.5 µg/mL (≈ 31.6 µM). It also gave a Ratio [7] of 4, an IC50 [8] of 1320 µg/mL (≈ 3340 µM) and an inhibition at 72 h, 6.25 ug/ml [9] of 11.1%. It also gave a selectivity ratio [10] of 119.
For Cc1ccc(C(=O)N/N=C/c2ccc3c(c2)Sc2ccccc2N3Cc2cn(Cc3ccc(C#N)cc3)nn2)cc1, the MIC [1] was 2.87 µM, the Ratio [3] was 4 and the MIC [4] was 50 µg/mL (≈ 90 µM). The MIC [5] was 25 µg/mL (≈ 45 µM), the MIC [6] was 100 µg/mL (≈ 180 µM) and the Ratio [7] was 4. It also gave an IC50 [8] of 456 µg/mL (≈ 821 µM), an inhibition at 72 h, 6.25 ug/ml [9] of 10.6% and a selectivity ratio [10] of 42.9.
N#Cc1ccc(Cn2cc(CN3c4ccc(/C=N/NC(=O)c5ccc(F)cc5)cc4Sc4ccc(C(F)(F)F)cc43)nn2)cc1 gave an MIC [1] of 2.55 µM, a Ratio [2] of 2 and a Ratio [3] of 4. For the same molecule, the MIC [4] was 12.5 µg/mL (≈ 19.9 µM), the MIC [5] was 6.25 µg/mL (≈ 9.96 µM) and the MIC [6] was 12.5 µg/mL (≈ 19.9 µM). The Ratio [7] was 4, the IC50 [8] was 647 µg/mL (≈ 1030 µM) and the inhibition at 72 h, 6.25 ug/ml [9] was 8.42%. It also gave a selectivity ratio [10] of 76.8.
N#Cc1ccc(Cn2cc(CN3c4ccccc4Sc4cc(/C=N/NC(=O)c5cnccn5)ccc43)nn2)cc1 gave an MIC [1] of 2.94 µM, a Ratio [2] of 2 and a Ratio [3] of 4. It also gave an MIC [4] of 50 µg/mL (≈ 92 µM), an MIC [5] of 50 µg/mL (≈ 92 µM) and an MIC [6] of 100 µg/mL (≈ 184 µM). For the same molecule, the Ratio [7] was 4, the IC50 [8] was 2400 µg/mL (≈ 4420 µM) and the inhibition at 72 h, 6.25 ug/ml [9] was 12.3%. It also gave a selectivity ratio [10] of 195.
N#Cc1ccc(Cn2cc(CN3c4ccccc4Sc4cc(/C=N/NC(=O)c5ccc([N+](=O)[O-])cc5)ccc43)nn2)cc1 gave an MIC [1] of 2.72 µM, a Ratio [2] of 2 and a Ratio [3] of 4. For the same molecule, the MIC [4] was 50 µg/mL (≈ 85.2 µM), the MIC [5] was 25 µg/mL (≈ 42.6 µM) and the MIC [6] was 50 µg/mL (≈ 85.2 µM). It also gave a Ratio [7] of 4, an IC50 [8] of 693 µg/mL (≈ 1180 µM) and an inhibition at 72 h, 6.25 ug/ml [9] of 7.57%. The selectivity ratio [10] was 91.5.
Molecule N#Cc1ccc(Cn2cc(CN3c4ccc(/C=N/NC(=O)c5ccc([N+](=O)[O-])cc5)cc4Sc4ccc(C(F)(F)F)cc43)nn2)cc1 has an MIC [1] of 2.44 µM, a Ratio [2] of 2 and a Ratio [3] of 4. For the same molecule, the MIC [4] was 50 µg/mL (≈ 76.4 µM), the MIC [5] was 25 µg/mL (≈ 38.2 µM) and the MIC [6] was 50 µg/mL (≈ 76.4 µM). The Ratio [7] was 4, the IC50 [8] was 1130 µg/mL (≈ 1720 µM) and the inhibition at 72 h, 6.25 ug/ml [9] was 8.91%. The selectivity ratio [10] was 126.
Molecule Cc1ccc(C(=O)N/N=C/c2ccc3c(c2)Sc2ccc(C(F)(F)F)cc2N3Cc2cn(Cc3ccc(C#N)cc3)nn2)cc1 has an MIC [1] of 2.56 µM, a Ratio [2] of 2 and a Ratio [3] of 4. For the same molecule, the MIC [4] was 50 µg/mL (≈ 80.2 µM), the MIC [5] was 25 µg/mL (≈ 40.1 µM) and the MIC [6] was 50 µg/mL (≈ 80.2 µM). The Ratio [7] was 4, the IC50 [8] was 1570 µg/mL (≈ 2510 µM) and the inhibition at 72 h, 6.25 ug/ml [9] was 6.28%. It also gave a selectivity ratio [10] of 250.
With Fc1ccccc1Cn1cc(CN2c3ccccc3Sc3ccccc32)nn1 the MIC [1] was 1.6 µg/mL, the Ratio [2] was 2 and the Ratio [3] was 4. For the same molecule, the MIC [4] was 12.5 µg/mL (≈ 32.2 µM), the MIC [5] was 12.5 µg/mL (≈ 32.2 µM) and the MIC [6] was 25 µg/mL (≈ 64.4 µM). For the same molecule, the Ratio [7] was 4, the IC50 [8] was 924 µg/mL (≈ 2380 µM) and the inhibition at 72 h, 6.25 ug/ml [9] was 3.33%. It also gave a selectivity ratio [10] of 278.
